Results from patent US8173645B2 (Takeda San Diego, Inc., priority 2007, dated 2012).
pEC50: −log10 of the molar value.

Biological target: T1, glucokinase (GK), residues 12-465 of the human enzyme (Homo sapiens, UniProt P35557)
T1 construct: I.D. No. 1 corresponds to residues 12-465 of glucokinase; made in house; host or cells: E. coli DH10b-Tlr
T1 sequence (P35557 with tags, fused parts or gaps isoform P35557-2): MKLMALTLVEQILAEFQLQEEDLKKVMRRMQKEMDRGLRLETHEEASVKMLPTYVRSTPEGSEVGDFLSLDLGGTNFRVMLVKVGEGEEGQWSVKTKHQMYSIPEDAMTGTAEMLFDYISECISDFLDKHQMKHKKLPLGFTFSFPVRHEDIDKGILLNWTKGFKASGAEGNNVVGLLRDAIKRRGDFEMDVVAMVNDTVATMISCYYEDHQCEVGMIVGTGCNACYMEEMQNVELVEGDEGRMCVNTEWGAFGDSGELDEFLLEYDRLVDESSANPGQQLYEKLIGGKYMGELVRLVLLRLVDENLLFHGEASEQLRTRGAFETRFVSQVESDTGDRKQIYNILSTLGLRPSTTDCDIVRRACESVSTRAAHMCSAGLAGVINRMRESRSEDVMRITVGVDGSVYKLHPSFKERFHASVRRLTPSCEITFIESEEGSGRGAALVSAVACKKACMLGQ
Test: Enzymatic glucokinase activity assay (KinaseGlo luminescence, ATP consumption)
Assay type: biochemical
Conditions: 5 μM ATP, 5 mM Glucose; for pEC50: GK activation, Kact = concentration giving 50% of the maximal increase in GK activity, read-out: pKact; for Emax: read-out: % ACTmax
Procedure, shortened: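 Activation measured as ATP consumption: residual ATP detected by KinaseGlo luminescence after 60 min at room temperature with 5 μM ATP and 5 mM glucose (Hepes pH 7.2, MgCl2, Brij35, DTT, 2% DMSO). Enzyme was recombinant FLAG-tagged protein from E. coli. Eleven-point twofold series were fitted nonlinearly for pKact and % ACTmax.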

[1] = calculated maximal gain in GK enzyme activity at a saturating concentration of the compound

| SMILES | pEC50 | Emax [1] | % ACTmax [1] |
| --- | --- | --- | --- |
| O=C(c1cccc(S(=O)(=O)N2CCN([C@@H](CC3CCCCC3)C(=O)Nc3nccs3)C(=O)C2)c1)c1ccccn1 [Example 178, (S)-3-cyclohexyl-2-(2-oxo-4-(3-picolinoylphenylsulfonyl)piperazin-1-yl)-N-(thiazol-2-yl)propanamide] | 5.90 to 6.10 | 74.1 to 97% |  |
| COc1ccc2nc(NC(=O)C(CC3CCOCC3)N3CCN(S(=O)(=O)C4CC4)CC3=O)sc2n1 (stereo not drawn) [Example 26, 2-(4-(cyclopropylsulfonyl)-2-oxopiperazin-1-yl)-N-(5-methoxythiazolo[5,4-b]pyridin-2-yl)-3-(tetrahydro-2H-pyran-4-yl)propanamide] | ≤ 5.50 | 74.1 to 97% |  |
| O=C(Nc1nccs1)[C@H](CC1CCCCC1)N1CCN(C(=S)Nc2ccc(C(F)(F)F)cc2)CC1=O [Example 85, (S)-3-cyclohexyl-2-(2-oxo-4-(4-(trifluoromethyl)phenylcarbamothioyl)piperazin-1-yl)-N-(thiazol-2-yl)propanamide] | ≤ 5.50 | ≤ 74% |  |
| N#Cc1ccc(S(=O)(=O)N2CCN([C@@H](CC3CCCCC3)C(=O)Nc3nccs3)C(=O)C2)cc1 [Example 66, (S)-2-(4-(4-cyanophenylsulfonyl)-2-oxopiperazin-1-yl)-3-cyclohexyl-N-(thiazol-2-yl)propanamide] | 5.60 to 5.80 | 74.1 to 97% |  |
| O=C(Nc1nccs1)[C@H](CC1CCCCC1)N1CCN(C(=O)NC2CCCC2)CC1=O [Example 140, (S)-4-(3-cyclohexyl-1-oxo-1-(thiazol-2-ylamino)propan-2-yl)-N-cyclopentyl-3-oxopiperazine-1-carboxamide] | ≤ 5.50 | 74.1 to 97% |  |
| O=C(Nc1nccs1)[C@H](CC1CCCCC1)N1CCN(C(=S)Nc2cccc(Cl)c2)CC1=O [Example 81, (S)-2-(4-(3-chlorophenylcarbamothioyl)-2-oxopiperazin-1-yl)-3-cyclohexyl-N-(thiazol-2-yl)propanamide] | 5.60 to 5.80 | 97.1 to 107% |  |
| O=C(Nc1nccs1)[C@H](CC1CCCCC1)N1CCN(S(=O)(=O)c2cccc3nonc23)CC1=O [Example 176, (S)-2-(4-(benzo[c][1,2,5]oxadiazol-4-ylsulfonyl)-2-oxopiperazin-1-yl)-3-cyclohexyl-N-(thiazol-2-yl)propanamide] | ≥ 6.20 | ≥ 119% |  |
| O=C(Nc1ncc(Cl)s1)[C@@H](CC1CCOCC1)N1CCN(S(=O)(=O)C2CC2)CC1=O [Example 25, (R)-N-(5-chlorothiazol-2-yl)-2-(4-(cyclopropylsulfonyl)-2-oxopiperazin-1-yl)-3-(tetrahydro-2H-pyran-4-yl)propanamide] | ≤ 5.50 | ≤ 74% |  |
| CC(C)C[C@@H](C(=O)Nc1ncc(F)s1)N1CCN(S(=O)(=O)C2CC2)CC1=O [Example 11, (S)-2-(4-(cyclopropylsulfonyl)-2-oxopiperazin-1-yl)-N-(5-fluorothiazol-2-yl)-4-methylpentanamide] | 5.90 to 6.10 | ≥ 119% |  |
| O=C(Nc1nccs1)[C@H](CC1CCCCC1)N1CCN(S(=O)(=O)c2cc3ccccc3o2)CC1=O [Example 226, (S)-2-(4-(benzofuran-2-ylsulfonyl)-2-oxopiperazin-1-yl)-3-cyclohexyl-N-(thiazol-2-yl)propanamide] | 5.90 to 6.10 | 74.1 to 97% |  |
| O=C(Nc1nccs1)[C@H](CC1CCCCC1)N1CCN(S(=O)(=O)C2CC2)CC1=O [Example 2, (S)-3-cyclohexyl-2-(4-(cyclopropylsulfonyl)-2-oxopiperazin-1-yl)-N-(thiazol-2-yl)propanamide] | ≥ 6.20 |  | 107.5-119.0% |
| O=C(Nc1nccs1)[C@H](CC1CCCCC1)N1CCN(S(=O)(=O)c2ccccc2C(F)(F)F)CC1=O [Example 71, (S)-3-cyclohexyl-2-(2-oxo-4-(2-(trifluoromethyl)phenylsulfonyl)piperazin-1-yl)-N-(thiazol-2-yl)propanamide] | ≥ 6.20 | 108 to 119% |  |
| O=C(Nc1nccs1)[C@H](CC1CCCCC1)N1CCN(C(=O)NCc2ccc(Cl)cc2)CC1=O [Example 138, (S)-N-(4-chlorobenzyl)-4-(3-cyclohexyl-1-oxo-1-(thiazol-2-ylamino)propan-2-yl)-3-oxopiperazine-1-carboxamide] | ≤ 5.50 | ≤ 74% |  |
| O=C(Nc1nccs1)[C@H](CC1CCCCC1)N1CCN(S(=O)(=O)c2ccc3c(c2)OCCO3)CC1=O [Example 53, (S)-3-cyclohexyl-2-(4-(2,3-dihydrobenzo[b][1,4]dioxin-6-ylsulfonyl)-2-oxopiperazin-1-yl)-N-(thiazol-2-yl)propanamide] | 5.90 to 6.10 | 74.1 to 97% |  |

Other lines, results leading:

| pEC50 | Emax [1] | % ACTmax [1] | SMILES |
| --- | --- | --- | --- |
| ≥ 6.20 | 74.1 to 97% |  | Cc1c(Cl)cc(F)cc1S(=O)(=O)N1CCN([C@@H](CC2CCCCC2)C(=O)Nc2nccs2)C(=O)C1 [Example 187, (S)-2-(4-(3-chloro-5-fluoro-2-methylphenylsulfonyl)-2-oxopiperazin-1-yl)-3-cyclohexyl-N-(thiazol-2-yl)propanamide] |
| 5.60 to 5.80 | 97.1 to 107% |  | CNC(=O)Nc1ccc(S(=O)(=O)N2CCN([C@@H](CC3CCCCC3)C(=O)Nc3nccs3)C(=O)C2)cc1Cl [Example 214, (S)-2-(4-(3-chloro-4-(3-methylureido)phenylsulfonyl)-2-oxopiperazin-1-yl)-3-cyclohexyl-N-(thiazol-2-yl)propanamide] |
| ≥ 6.20 | ≥ 119% |  | O=C(Nc1nccs1)[C@H](CC1CCCCC1)N1CCN(S(=O)(=O)c2ccccc2F)CC1=O [Example 205, (S)-3-cyclohexyl-2-(4-(2-fluorophenylsulfonyl)-2-oxopiperazin-1-yl)-N-(thiazol-2-yl)propanamide] |
| 5.60 to 5.80 | ≤ 74% |  | CCOC(=O)c1nc(-c2ccc(S(=O)(=O)N3CCN([C@@H](CC4CCCCC4)C(=O)Nc4nccs4)C(=O)C3)s2)no1 [Example 167, (S)-ethyl 3-(5-(4-(3-cyclohexyl-1-oxo-1-(thiazol-2-ylamino)propan-2-yl)-3-oxopiperazin-1-ylsulfonyl)thiophen-2-yl)-1,2,4-oxadiazole-5-carboxylate] |
| 5.60 to 5.80 | ≤ 74% |  | COC(=O)c1cc(C)c(S(=O)(=O)N2CCN([C@@H](CC3CCCCC3)C(=O)Nc3nccs3)C(=O)C2)s1 [Example 157, (S)-methyl 5-(4-(3-cyclohexyl-1-oxo-1-(thiazol-2-ylamino)propan-2-yl)-3-oxopiperazin-1-ylsulfonyl)-4-methylthiophene-2-carboxylate] |
| 5.90 to 6.10 | ≥ 119% |  | O=C(Nc1nccs1)[C@H](CC1CCCCC1)N1CCN(S(=O)(=O)c2ccc(F)c(F)c2F)CC1=O [Example 183, (S)-3-cyclohexyl-2-(2-oxo-4-(2,3,4-trifluorophenylsulfonyl)piperazin-1-yl)-N-(thiazol-2-yl)propanamide] |
| 5.90 to 6.10 | ≥ 119% |  | COc1ccc(C)cc1S(=O)(=O)N1CCN([C@@H](CC2CCCCC2)C(=O)Nc2nccs2)C(=O)C1 [Example 95, (S)-3-cyclohexyl-2-(4-(2-methoxy-5-methylphenylsulfonyl)-2-oxopiperazin-1-yl)-N-(thiazol-2-yl)propanamide] |
| 5.60 to 5.80 | 74.1 to 97% |  | N#Cc1ccc(S(=O)(=O)N2CCN([C@@H](CC3CCCCC3)C(=O)Nc3nccs3)C(=O)C2)c(Cl)c1 [Example 52, (S)-2-(4-(2-chloro-4-cyanophenylsulfonyl)-2-oxopiperazin-1-yl)-3-cyclohexyl-N-(thiazol-2-yl)propanamide] |
| 5.60 to 5.80 | ≤ 74% |  | O=C(Nc1nccs1)[C@H](CC1CCCCC1)N1CCN(S(=O)(=O)c2cc(Cl)c(Cl)cc2Cl)CC1=O [Example 219, (S)-3-cyclohexyl-2-(2-oxo-4-(2,4,5-trichlorophenylsulfonyl)piperazin-1-yl)-N-(thiazol-2-yl)propanamide] |
| 5.60 to 5.80 | ≤ 74% |  | O=C(Nc1nccs1)[C@H](CC1CCCCC1)N1CCN(S(=O)(=O)c2cnc(Cl)c(Br)c2)CC1=O [Example 217, (S)-2-(4-(5-bromo-6-chloropyridin-3-ylsulfonyl)-2-oxopiperazin-1-yl)-3-cyclohexyl-N-(thiazol-2-yl)propanamide] |
| 5.90 to 6.10 | ≤ 74% |  | O=C(Nc1nccs1)[C@H](CC1CCCCC1)N1CCN(S(=O)(=O)c2ccc(Cl)c(Cl)c2)CC1=O [Example 90, (S)-3-cyclohexyl-2-(4-(3,4-dichlorophenylsulfonyl)-2-oxopiperazin-1-yl)-N-(thiazol-2-yl)propanamide] |
| 5.90 to 6.10 | ≤ 74% |  | O=C(Nc1nccs1)[C@H](CC1CCCCC1)N1CCN(S(=O)(=O)c2ccc(Cl)c(Cl)c2Cl)CC1=O [Example 220, (S)-3-cyclohexyl-2-(2-oxo-4-(2,3,4-trichlorophenylsulfonyl)piperazin-1-yl)-N-(thiazol-2-yl)propanamide] |
| ≥ 6.20 | ≥ 119% |  | Cc1cccc(S(=O)(=O)N2CCN([C@@H](CC3CCCCC3)C(=O)Nc3nccs3)C(=O)C2)c1 [Example 192, (S)-3-cyclohexyl-2-(2-oxo-4-(m-tolylsulfonyl)piperazin-1-yl)-N-(thiazol-2-yl)propanamide] |
